Experimental data reported in patent US20070010459A1, “Application of asiatic acid and its derivatives to treat pulmonary fibrosis” (priority 2005, published 2007).
Values after ≈ are worked out from the molar mass of the structure shown. Values belong to the compound of their own block, whether it stands above or below them.

How the values were obtained:
[1] = background statement, see U.S. Pat. No. 6,417,349; cited from earlier work
[2] = tested on: pulmonary fibrosis induced by bleomycin in rat; assay: Asiatic acid in bleomycin-induced pulmonary fibrosis rat model; assay type: in vivo, SD male rats; details: for Lung CT scanning results: after 28 days; for Lung Weight: mean
Excerpt: The pulmonary fibrosis animal model was induced by bleomycin in rat according to the methods described by Lazo J S, Hoyt D G, Sebti S M, Pitt B R. in Pharmacol Ther. 1990: 47:347-58. In this article, praquat, bleomycin and amiodrone are three routinely used chemical agent to induce lung fibrosis is rodents, e.g. mice, rat and Chinese hamsters as well as primates, e.g. baboon and cynomolgous monkey etc. there are also reports describing using rabbit or dog as model animal for such study. Different groups were able to generate lung fibrosis in animal models through different administration routes. For example, 3 various pulmonary fibrosis animal models using Co^60 to radiate rat, bleomycin or CCl4 injection into abdominal cavity of mice or rat respectively were generated. […] Specifically, diffusive stromal lung fibrosis model induced by tracheal bleomycin dripping is the most commonly used animal model. The advantage of this method is that the model can be obtained with once bleomycin dripping without repeated venous or abdominal injections, therefore limiting the influences to other organs caused by systematic administrations. It also lowers the experimental cost. The development of pulmonary fibrosis from alveolitis can be observed in 4 weeks, which is very similar to the pulmonary fibrosis pathological development in human being.
1. Animal: SD male rats with weight raging between 200-250 g, purchased from SLAC.
3. Dosage: Asiatic acid, 3, 9, […], po for 28 days.
Male SD rats were lay down flat on operating table and anesthetize with 3% Secobarbital. The trachea was exposed after sterilization of cervical part with alcohol. The needle was then inserted into tracheal cartilage interspace. Bleomycin at 5 mg/kg was dipped in. Afterwards, the rats were reared to evenly distribute bleomycin in the lung. The trachea was then sutured. […] The regimen was initiated on the second day. Sham-operated and untreated group received saline. After 28 days of treatment, lung weight, hydroyproline content, pathological section and CT scan were measured or conducted.
After 28 days on asiatic acid, rats were sacrificed and dissected. The body and lung weight were measured respectively and used to calculate lung weigh coefficient.
After 28 days on Asiatic acid, hydroxyproline content in lung was measured. The results are as follows:
After 28 days on asiatic acid, lung CT scans were performed to each group of experimental rats.
After 28 days on asiatic acid, the rats were sacrificed and dissected. Both lungs were harvested. The specimen were embedded and fixed then subjected to HE staining. The focus of infection were observed under microscope with ⅓, ⅔ and 3/3 Vf*10 to conduct semi-quantative analysis.

[3] = Pharmacokinetics, tissue distribution and excretion of asiaticoside; assay type: in vivo, rats; details: rat, in vivo, 100 mg/kg
Description: Three doses of asiaticoside (10, 33, 100 mg/kg) were gavaged to rats (n=6) and canines (n=4). After dosing, blood was sampled up to 120 or 216 hours in rats and canines respectively. Tissue distribution and excretion studies in rats were carried out with the highest dose.
The respective asiaticoside and asiatic acid in the same bio-matrix were detected by LC/MS/MS and GC/MS. Because the secondary peak resembled a plasma concentration-time profile in both rat and canine rather than conventional compartment fitting, statistical moment analysis was used in calculating pharmacokinetic parameters. […] In addition to the targeted organ, both asiaticoside and asiatic acid were distributed in some other organs, which could be the sign to expand clinical indications.

[4] = tested on: primary culture of mice fibroblast; assay: bFGF-stimulated proliferation of primary fibroblast culture; assay type: cell-based; details: tested at 25, 12.5, 6.25, 3.125 or 1.56 μg
Description: Using bFGF (0.5 µg/ml), the proliferation of primary culture of mice fibroblast with the presence of asiaticoside or asiatic acid at 25, 12.5, 6.25, 3.125 or 1.56 μg respectively was assessed.

[5] = tested on: rats with pulmonary fibrosis induced by bleomycin; assay: Pharmacodynamics of asiaticoside in rats with pulmonary fibrosis induced by bleomycin; assay type: in vivo
Description: The rats with lung fibrosis were induced by bleomycin through trachea administration and then treated with asiaticoside. […] The study regimen lasted for 28 days. The lung weight coefficient and hydroyproline (HXP) content were measured on day 2 and 8 after the formation of animal model. CT scan, pathology and serum ECM content measurements were conducted on day 14, 21 and 28 days respectively.

[6] = tested on: radiation pneumonia and subsequent pulmonary fibrosis induced by Cobalt-60 radiation; assay: Pharmacodynamics of asiaticoside in radiation pneumonia induced by Cobalt-60 radiation; assay type: in vivo, rats; parameters: Type IV (collagen content comparison, serum ECM) / Laminin (serum ECM) / Hyaluronic Acid (serum ECM): unit not given here
Description: Radiation pneumonia and subsequent pulmonary fibrosis in rats was induced by Cobalt-60 radiation. The efficacies were assessed by the lung weight coefficient, HXP content, serum ECM measurement, CT scan and pathological examinations.

[7] = first experiment, asiatic acid high dose 27 mg/kg po 28 days
[8] = first experiment, asiatic acid low dose 3 mg/kg po 28 days
[9] = first experiment, asiatic acid medium dose 9 mg/kg po 28 days
[10] = second experiment, asiatic acid high dose 27 mg/kg po 28 days
[11] = second experiment, asiatic acid low dose 3 mg/kg po 28 days
[12] = second experiment, asiatic acid medium dose 9 mg/kg po 28 days
[13] = third experiment, asiatic acid high dose 27 mg/kg po 28 days
[14] = third experiment, asiatic acid low dose 3 mg/kg po 28 days
[15] = third experiment, asiatic acid medium dose 9 mg/kg po 28 days
[16] = first experiment, dexmethasone 0.6 mg/kg po 28 days
[17] = second experiment, dexmethasone 0.6 mg/kg po 28 days
[18] = third experiment, dexmethasone 0.6 mg/kg po 28 days
[19] = dexamethasone 0.6 mg/kg daily oral, 28 days

Tissue accumulation [3]: no apparent tissue accumulation
SMILES: C[C@H]1[C@H](C)CC[C@]2(C(=O)O)CC[C@]3(C)C(=CC[C@@H]4[C@@]5(C)C[C@@H](O)[C@H](O)[C@@](C)(CO)[C@@H]5CC[C@]43C)[C@H]12 [Asiatic acid, asiatic acid]
Solubility [1]: insoluble in water
CT: therapeutic effect in acute phase of pulmonary fibrosis ([2]; acute phase): didn't display any therapeutic effects
Lung CT scanning results ([2]; asiatic acid high dose 27 mg/kg po): Light glass infiltration, part of lobules consolidates.
Lung CT scanning results ([2]; asiatic acid low dose 3 mg/kg po): Consolidation in lobules, bronchiectasis, honeycomb
Pathology results (HE staining of lungs) ([2]; asiatic acid high, medium and low dose, 28 days, not dose dependent): light fibroplasias in alveoli pulmonis diaphragm, light lymphocyte infiltration and compensatory emphysema
Lung weight coefficient [2, 7]: 0.70
Lung Weight [2, 7]: 2.17 g
Lung weight coefficient [2, 8]: 0.66
Lung Weight [2, 8]: 1.97 g
Lung weight coefficient [2, 9]: 0.66
Lung Weight [2, 9]: 2.02 g
HX content (hydroxyproline content in lung) X ± SD ([2]; first experiment, high dose 27 mg/kg po * 28): 2.39 ± 0.44 mg/g
HX content (hydroxyproline content in lung) X ± SD ([2]; first experiment, low dose 3 mg/kg po * 28): 3.43 ± 0.62 mg/g
HX content (hydroxyproline content in lung) X ± SD ([2]; first experiment, medium dose 9 mg/kg po * 28): 2.36 ± 0.87 mg/g
CT: therapeutic effect in mid to late phase of the disease ([2]; mid to late phase): can significantly relive the extent of fibrosis in lungs
Overall effect on lung fibrosis ([2]; rats receiving bleomycin induction, direct administration): can relieve lung fibrosis
Lung weight coefficient [2, 10]: 0.65
Lung Weight [2, 10]: 2.26 g
Lung weight coefficient [2, 11]: 0.76
Lung Weight [2, 11]: 2.34 g
Lung weight coefficient [2, 12]: 0.70
Lung Weight [2, 12]: 2.21 g
HX content (hydroxyproline content in lung) X ± SD ([2]; second experiment, high dose 27 mg/kg po * 28): 2.37 ± 0.41 mg/g
HX content (hydroxyproline content in lung) X ± SD ([2]; second experiment, low dose 3 mg/kg po * 28): 3.41 ± 0.60 mg/g
HX content (hydroxyproline content in lung) X ± SD ([2]; second experiment, medium dose 9 mg/kg po * 28): 2.36 ± 0.79 mg/g
Lung weight coefficient [2, 13]: 0.70
Lung Weight [2, 13]: 2.17 g
Lung weight coefficient [2, 14]: 0.66
Lung Weight [2, 14]: 1.97 g
Lung weight coefficient [2, 15]: 0.66
Lung Weight [2, 15]: 2.02 g
HX content (hydroxyproline content in lung) X ± SD ([2]; third experiment, high dose 27 mg/kg po * 28): 2.30 ± 0.46 mg/g
HX content (hydroxyproline content in lung) X ± SD ([2]; third experiment, low dose 3 mg/kg po * 28): 3.42 ± 0.57 mg/g
HX content (hydroxyproline content in lung) X ± SD ([2]; third experiment, medium dose 9 mg/kg po * 28): 2.71 ± 0.44 mg/g
IC50 ([4]; Mus musculus, Fibroblast, bFGF, read-out: IC50, growth inhibition of fibroblast treated with bFGF): 137 µg/mL (≈ 280 µM)
Inhibitory activity on fibroblast proliferation ([4]; bFGF 0.5 g/ml): growth inhibitory roles to fibroblast treated with bFGF to certain extent

SMILES: C[C@@H]1C[C@H]2[C@@H]3CCC4=CC(=O)C=C[C@]4(C)[C@@]3(F)[C@@H](O)C[C@]2(C)[C@@]1(O)C(=O)CO [Dexmethasone, Dexamethasone, reference compound]
Lung CT scanning results ([2]; dexmethasone 0.6 mg/kg po): Light hyperplasy in lung striation. Light consolidation
HX content (hydroxyproline content in lung) X ± SD ([2]; first experiment, 0.6 mg/kg po * 28): 2.34 ± 9.54 mg/g
Lung weight coefficient [2, 16]: 0.72
Lung Weight [2, 16]: 1.90 g
HX content (hydroxyproline content in lung) X ± SD ([2]; second experiment, 0.6 mg/kg po * 28): 2.41 ± 0.45 mg/g
Lung weight coefficient [2, 17]: 0.69
Lung Weight [2, 17]: 1.62 g
HX content (hydroxyproline content in lung) X ± SD ([2]; third experiment, 0.6 mg/kg po * 28): 2.47 ± 0.45 mg/g
Lung weight coefficient [2, 18]: 0.72
Lung Weight [2, 18]: 1.90 g
CT scan findings ([5]; dexamethasone 0.6 mg/kg): ground glass infiltration and fibrotic streaks were found in both lungs
ET-1 (cytokine content) ([5]; dexamethasone 0.6 mg/kg): 257.86 ± 20.81
Hyaluronic Acid (serum ECM) ([5]; dexamethasone 0.6 mg/kg): 232.97 ± 101.24
Laminin (serum ECM) ([5]; dexamethasone 0.6 mg/kg): 48.41 ± 14.12
PIIIP (collagen content comparison, serum ECM) ([5]; dexamethasone 0.6 mg/kg): 19.59 ± 6.24
Pathology ([5]; dexamethasone 0.6 mg/kg): a light inflammatory reaction caused by lymphocyte was found with inflammatory cell infiltration seen in the alveoli pulmonis
TNF-α (cytokine content) ([5]; dexamethasone 0.6 mg/kg): 6.50 ± 0.73
TNF-[…] (cytokine content) ([5]; dexamethasone 0.6 mg/kg): 0.075 ± 0.010
Type IV (collagen content comparison, serum ECM) ([5]; dexamethasone 0.6 mg/kg): 10.71 ± 4.94
HXP content [5, 19]: 19.32 ± 4.35 mg/g
Lung weight coefficient [5, 19]: 0.72%
CT scan findings ([6]; dexamethasone group): mild ground glass infiltration and fibrotic streaks in the right lung with right base atelectasis
HXP content ([6]; dexamethasone treated): 36.42 ± 2.74 mg/g
Hyaluronic Acid (serum ECM) ([6]; dexamethasone treated): 195.12 ± 55.89
Laminin (serum ECM) ([6]; dexamethasone treated): 47.91 ± 8.04
Lung weight coefficient ([6]; dexamethasone treated): 0.42%
PIIIP (collagen content comparison, serum ECM) ([6]; dexamethasone treated): 14.51 ± 5.61
Type IV (collagen content comparison, serum ECM) ([6]; dexamethasone treated): 12.65 ± 2.87
